Patent US9611248B2, “Chemical compounds” (Syngenta Participations AG, priority 2013, dated 2017)

Tested on: a variety of test species
Assay: Post-emergence herbicidal activity
Format: in vivo
Parameters: key to ABUTH (Abutilon theophrasti) damage score / AMARE (Amaranthus retroflexus) damage score / ALOMY (Alopecurus myosuroides) damage score / ECHCG (Echinochloa crus-galli) damage score / ZEAMX (Zea mays) damage score / SOLNI (Solanum nigrum) damage score: 0 = no damage to plant, 5 = total damage to plant
Details: rate 1000 g/ha, evaluated after 13 days
Method in brief: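 Plants grown for 8 days in pots were sprayed post-emergence with compound in acetone/water (50:50) containing 0.5% Tween 20. They were kept in a glasshouse at 24/16 °C day/night, 14 h light, 65% humidity, watered twice daily. Damage was scored after 13 days (0 none to 5 total).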

Row | Structure (SMILES) | ABUTH (Abutilon theophrasti) damage score | ALOMY (Alopecurus myosuroides) damage score | AMARE (Amaranthus retroflexus) damage score | ECHCG (Echinochloa crus-galli) damage score | SETFA (Setaria faberi) damage score | ZEAMX (Zea mays) damage score | SOLNI (Solanum nigrum) damage score
1 | CCC1=C(Br)C(O)N(c2cc(C(C)(C)C#N)ncn2)C1=O (racemic) [CB2] | 3 | 1 | 3 | 1 | 0 | 0 | 
2 | CC1=C(Cl)C(O)N(c2cc(C(F)(F)F)c(C(=O)NC(C)(C)C)cn2)C1=O (stereo not drawn) [AA46] | 5 | 3 | 5 | 3 | 3 | 0 | 
3 | COC1=C(C)C(=O)N(c2cc(C(F)(F)F)c(/C(C)=C/C#N)cn2)C1O (stereo not drawn) [AD38, (E)-3-[6-(2-hydroxy-3-methoxy-4-methyl-5-oxo-2H-pyrrol-1-yl)-4-(trifluoromethyl)-3-pyridyl]but-2-enenitrile] | 5 | 5 | 5 | 5 | 5 | 0 | 
4 | COC1=C(C)C(=O)N(c2cc(C(F)(F)F)c(-c3ccccc3)cn2)C1O (stereo not drawn) [AD128] | 5 | 3 | 5 | 5 | 5 | 2 | 
5 | CCc1cc(N2C(=O)C(C)=C(OC)C2O)ncc1-c1ccc(F)cc1 (stereo not drawn) [AD62] | 4 | 3 | 5 | 3 | 5 | 0 | 
6 | COC1=C(C)C(=O)N(c2cc(C(C)(C)C)c(-c3ccc(F)cc3)nn2)C1O (stereo not drawn) [BD9] | 2 | 3 | 5 | 2 | 4 | 1 | 
7 | CCc1cc(N2C(=O)C(C)=C(OC)C2O)ncc1-c1ccc(F)cc1F (stereo not drawn) [AD106] | 5 | 2 | 5 | 4 | 4 | 0 | 
8 | CCOc1nnc(N2C(=O)C(C)=C(OC)C2O)cc1C(C)C (stereo not drawn) [BD7] | 5 | 5 | 5 | 5 | 5 | 3 | 
9 | COC1=C(C)C(=O)N(c2cc(C)c(-c3ccsc3)cn2)C1O (stereo not drawn) [AD61] | 5 | 1 | 5 | 3 | 4 | 1 | 
10 | C=Cc1ccc(N2C(=O)C(C)=C(OC)C2O)nc1 (stereo not drawn) [AD33] | 2 | 1 | 1 | 3 | 2 | 0 | 
11 | COc1nnc(N2C(=O)C(C)=C(Br)C2O)cc1C (stereo not drawn) [BB1] | 1 | 0 | 0 | 1 | 2 | 0 | 
12 | CCc1cc(N2C(=O)C(C)=C(OC)C2O)ncc1-c1ccccc1OC (stereo not drawn) [AD100] | 4 | 0 | 5 | 0 | 4 | 1 | 
13 | CCc1cc(N2C(=O)C(C)=C(OC)C2O)ncc1C=C(C)C (stereo not drawn) [AD71] | 4 | 2 | 5 | 3 | 5 | 2 | 
14 | COC1=C(C)C(=O)N(c2ccc(OC(F)(F)F)cn2)C1O (stereo not drawn) [AD47] | 5 | 3 | 5 | 3 | 4 | 0 | 
15 | COC1=C(C)C(=O)N(c2cc(C(F)(F)F)ncn2)C1O (racemic) [CD4] | 5 | 5 | 3 | 5 | 5 | 1 | 
16 | C#Cc1cnc(N2C(=O)C(C)=C(OC)C2O)cc1C(F)(F)F (stereo not drawn) [AD20] | 4 | 4 | 5 | 4 | 5 | 0 | 
17 | COC1=C(C)C(=O)N(c2cc(C)c(-c3ccccc3[N+](=O)[O-])cn2)C1O (stereo not drawn) [AD120] | 5 | 2 | 5 | 4 | 4 | 0 | 
18 | COC1=C(C)C(=O)N(c2cc(C(F)(F)F)c(-c3ccc(C)c([N+](=O)[O-])c3)cn2)C1O (stereo not drawn) [AD127] | 2 | 1 | 5 | 4 | 4 | 4 | 
19 | CC1=C(Cl)C(O)N(c2cc(C(F)(F)F)ncn2)C1=O (stereo not drawn) [CA2] | 0 | 1 | 0 | 0 | 0 | 0 | 
20 | COC1=C(C)C(=O)N(c2cc(C)c(-c3ccccc3C)cn2)C1O (stereo not drawn) [AD66] | 4 | 1 | 5 | 4 | 5 | 0 | 
21 | CC1=C(Cl)C(O)N(c2ccc(Cl)cn2)C1=O (stereo not drawn) [AA32] |  | 0 | 0 | 0 | 2 | 0 | 2
22 | COC1=C(C)C(=O)N(c2nccc(C(F)(F)F)c2C#N)C1O (stereo not drawn) [AD5] | 5 | 4 | 5 | 4 | 4 | 2 | 
23 | COC1=C(C)C(=O)N(c2nccc(N(C)C)n2)C1O (racemic) [DD2] | 0 | 0 | 1 | 1 | 0 | 1 | 
24 | COC1=C(C)C(=O)N(c2cc(C(F)(F)F)c(-c3ccc(F)cc3F)cn2)C1O (stereo not drawn) [AD131] | 5 | 2 | 5 | 4 | 4 | 1 | 
25 | CC1=C(Cl)C(O)N(c2nccc(C(F)(F)F)c2F)C1=O (stereo not drawn) [AA4] | 1 | 1 | 1 | 0 | 1 | 2 | 
26 | COC1=C(C)C(=O)N(c2cc(Cl)c(-c3ccsc3)cn2)C1O (stereo not drawn) [AD134] | 3 | 1 | 5 | 2 | 5 | 1 | 
27 | CCC/C=C/c1cnc(N2C(=O)C(C)=C(OC)C2O)cc1C(F)(F)F (stereo not drawn) [AD13] | 5 | 5 | 5 | 5 | 5 | 1 | 
28 | COC1=C(C)C(=O)N(c2cc(C(C)(C)C)c(-c3cccc(C#N)c3)nn2)C1O (stereo not drawn) [BD14] | 4 | 4 | 5 | 3 | 4 | 1 | 
29 | COC1=C(C)C(=O)N(c2cc(C(F)(F)F)c(-c3cccc(F)c3)cn2)C1O (stereo not drawn) [AD133] | 5 | 2 | 5 | 4 | 4 | 3 | 
30 | CCc1cc(N2C(=O)C(C)=C(OC)C2O)ncc1-c1cccc(C#N)c1 (stereo not drawn) [AD99] | 5 | 1 | 5 | 5 | 4 | 1 | 
